In paper PMC6943726, “Discovery of 8-Amino-Substituted 2-Phenyl-2,7-Naphthyridinone Derivatives as New c-Kit/VEGFR-2 Kinase Inhibitors” (Molecules, 2019):

Assays:
Assay type in all cases: biochemical
MET = target: T1, MET (Homo sapiens, UniProt P08581); assay: HTRF enzyme assay with recombinant MET kinase domain; conditions: purified recombinant MET kinase domain, read-out: Inhibitory Activity, IC50, MET
T1 construct: was evaluated using an enzyme assay with a recombinant kinase domain; purchased Invitrogen (Carlsbad, CA, US)
T1 sequence (P08581 1078-1345 limits assumed): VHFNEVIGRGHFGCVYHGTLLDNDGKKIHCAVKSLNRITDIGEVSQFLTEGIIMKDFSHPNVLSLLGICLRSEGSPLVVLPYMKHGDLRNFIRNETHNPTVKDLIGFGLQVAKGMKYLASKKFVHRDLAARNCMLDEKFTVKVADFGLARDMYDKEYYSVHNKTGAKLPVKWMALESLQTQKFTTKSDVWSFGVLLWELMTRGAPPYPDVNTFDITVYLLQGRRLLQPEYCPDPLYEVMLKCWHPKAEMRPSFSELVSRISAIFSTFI
Procedure: (§1) The ability of the synthesized compounds to inhibit MET, c-Kit, and VEGFR-2 activities was evaluated using an enzyme assay with a recombinant kinase domain [29]. Based on the structure activity relationship (SAR) of MET inhibitors, we proposed that the removal of the key diaryl ether fragments in compound 3 would result in a loss of MET activity.
(§2) The ability of compounds to inhibit the activity of three kinases (MET, c-Kit, and VEGFR-2) was tested in vitro [30]. Enzyme assays were run in homogeneous time-resolved fluorescence (HTRF) format in 384-well microtiter plates using purified kinases purchased from Invitrogen (Carlsbad, CA, US). The HTRF KinEASE TK kit (contains substrate-biotin, antibody-cryptate, streptavidin-XL665, 5×enzymatic buffer, and detection buffer) was purchased from Cisbio (Codolet, France), and the kinase assays were performed according to the manufacturer’s instructions. After the kinases and the compounds incubated at 25~30 °C for 5 min, the reactions were initiated by the addition of 2 μL of mixed substrate solution (mixed solution of ATP (Sigma, Shanghai, China) and substrate-biotin). The final concentrations of kinases were at EC80 and the total reaction volume was 8 μL. Plates were incubated at 30 °C for 30~60 min, then the reactions were quenched by the addition 8 μL mixed detection solution (mixed solution of antibody-cryptate and streptavidin-XL665 in detection buffer). The fluorescence excitation wavelength was […]. The fluorescence at 665 nm (acceptor emission wavelength) and 620 nm (donor emission wavelength) was measured with a PHERAstar FS plate reader (BMG, LABTECH, Ortenberg, Germany) using a time delay of 50 μs. All kinase assays were conducted using ATP concentrations below the enzyme Kmapp and kinase-specific biotinylated substrate peptides.
(§3) The data for dose responses were plotted as percentage of inhibition calculated with the data reduction formula 100 × [1 − (U1 − C2)/(C1 − C2)] versus concentration of compound, where U is the emission ratio of 665 nm and 620 nm of test sample, C1 is the average value obtained for solvent control (2% DMSO), and C2 is the average value obtained for no reaction control (no kinase sample). Inhibition curves were generated by plotting percentage of control activity versus log10 of the concentration of each […]. The IC50 values were calculated by nonlinear regression with Graphpad Prism 5 (GraphPad Software, San Diego, CA).

c-Kit = target: T2, c-Kit (Homo sapiens, UniProt P10721); assay: HTRF enzyme assay with recombinant c-Kit kinase domain; conditions: for IC50: purified recombinant c-Kit kinase domain, HTRF, read-out: Inhibitory Activity, IC50, c-Kit
T2 construct: was evaluated using an enzyme assay with a recombinant kinase domain; purchased Invitrogen (Carlsbad, CA, US)
T2 sequence (P10721 589-937 limits assumed): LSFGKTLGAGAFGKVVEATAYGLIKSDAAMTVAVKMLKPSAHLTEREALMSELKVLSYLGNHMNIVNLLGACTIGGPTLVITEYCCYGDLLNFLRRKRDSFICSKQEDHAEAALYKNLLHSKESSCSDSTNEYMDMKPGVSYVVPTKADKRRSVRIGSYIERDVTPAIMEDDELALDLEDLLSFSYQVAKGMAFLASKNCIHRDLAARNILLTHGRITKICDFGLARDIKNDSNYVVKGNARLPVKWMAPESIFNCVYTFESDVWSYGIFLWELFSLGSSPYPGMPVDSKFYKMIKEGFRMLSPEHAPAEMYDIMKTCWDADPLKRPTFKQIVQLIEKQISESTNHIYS
Procedure: as §1, §2, §3

VEGFR-2 = target: T3, VEGFR-2 (Homo sapiens, UniProt P35968); assay: HTRF enzyme assay with recombinant VEGFR-2 kinase domain; conditions: for IC50: purified recombinant VEGFR-2 kinase domain, HTRF, read-out: Inhibitory Activity, IC50, VEGFR-2
T3 construct: was evaluated using an enzyme assay with a recombinant kinase domain; purchased Invitrogen (Carlsbad, CA, US)
T3 sequence (P35968 834-1162 limits assumed): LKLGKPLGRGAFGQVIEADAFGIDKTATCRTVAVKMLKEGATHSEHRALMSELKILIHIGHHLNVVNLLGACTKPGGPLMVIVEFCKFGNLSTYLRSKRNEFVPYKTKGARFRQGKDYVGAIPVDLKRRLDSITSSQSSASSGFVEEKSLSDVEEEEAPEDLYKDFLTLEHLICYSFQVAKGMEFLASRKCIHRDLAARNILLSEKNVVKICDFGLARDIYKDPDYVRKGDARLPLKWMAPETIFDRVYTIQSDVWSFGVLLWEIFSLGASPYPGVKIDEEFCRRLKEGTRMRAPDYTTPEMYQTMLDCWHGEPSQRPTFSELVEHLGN
Procedure: as §1, §2, §3

[1] = ratio of IC50 values vs compound 3

| Structure (SMILES) | IC50 (MET) | IC50 (c-Kit) | IC50 (VEGFR-2) | c-Kit potency, fold less potent than compound 3 (c-Kit; [1]) | c-Kit potency, fold more potent than compound 3 (c-Kit; [1]) | VEGFR-2 potency, fold more potent than compound 3 (VEGFR-2; [1]) | c-Kit inhibitory activity (in words) (c-Kit) |
| --- | --- | --- | --- | --- | --- | --- | --- |
| Nc1nccc(Oc2ccc(Nc3nccc4ccn(-c5ccc(F)cc5)c(=O)c34)cc2F)c1Cl [Compound 3, reference compound] | 0.0099 µM | 0.33 µM | 0.28 µM |  |  |  |  |
| O=c1c2c(Nc3ccccc3)nccc2ccn1-c1ccc(F)cc1 [Compound 9a, 2-(4-fluorophenyl)-8-(phenylamino)-2,7-naphthyridin-1(2H)-one] | > 5 µM | > 5 µM | > 5 µM |  |  |  |  |
| Cc1cccc(C)c1Nc1nccc2ccn(-c3ccc(F)cc3)c(=O)c12 [Compound 9b, 8-((2,6-dimethylphenyl)amino)-2-(4-fluorophenyl)-2,7-naphthyridin-1(2H)-one] | > 5 µM | > 5 µM | > 5 µM |  |  |  |  |
| O=c1c2c(Nc3c(Cl)cccc3Cl)nccc2ccn1-c1ccc(F)cc1 [Compound 9c, 8-((2,6-dichlorophenyl)amino)-2-(4-fluorophenyl)-2,7-naphthyridin-1(2H)-one] | > 5 µM | > 5 µM | 0.691 µM |  |  |  |  |
| O=c1c2c(Nc3cccnc3)nccc2ccn1-c1ccc(F)cc1 [Compound 9d, 2-(4-fluorophenyl)-8-(pyridin-3-ylamino)-2,7-naphthyridin-1(2H)-one] | > 5 µM | > 5 µM | > 5 µM |  |  |  |  |
| O=c1c2c(Nc3ccc4ccncc4c3)nccc2ccn1-c1ccc(F)cc1 [Compound 9e, 2-(4-fluorophenyl)-8-(isoquinolin-7-ylamino)-2,7-naphthyridin-1(2H)-one] | > 5 µM | > 5 µM | > 5 µM |  |  |  |  |
| O=c1c2c(NCc3ccccc3)nccc2ccn1-c1ccc(F)cc1 [Compound 9f, 8-(benzylamino)-2-(4-fluorophenyl)-2,7-naphthyridin-1(2H)-one] | > 5 µM | > 5 µM | > 5 µM |  |  |  |  |
| O=c1c2c(NCc3ccncc3)nccc2ccn1-c1ccc(F)cc1 [Compound 9g, 2-(4-fluorophenyl)-8-((pyridin-4-ylmethyl)amino)-2,7-naphthyridin-1(2H)-one] | > 5 µM | 0.832 µM | 0.601 µM | 2.5 fold |  |  |  |
| O=c1c2c(NCc3cccnc3)nccc2ccn1-c1ccc(F)cc1 [Compound 9h, 2-(4-fluorophenyl)-8-((pyridin-3-ylmethyl)amino)-2,7-naphthyridin-1(2H)-one] | > 5 µM | > 5 µM | > 5 µM |  |  |  |  |
| O=c1c2c(NCc3ccco3)nccc2ccn1-c1ccc(F)cc1 [Compound 9i, 2-(4-fluorophenyl)-8-((furan-2-ylmethyl)amino)-2,7-naphthyridin-1(2H)-one] | > 5 µM | > 5 µM | > 5 µM |  |  |  |  |
| O=c1c2c(NCc3cccc4ccccc34)nccc2ccn1-c1ccc(F)cc1 [Compound 9j, 2-(4-fluorophenyl)-8-((naphthalen-1-ylmethyl)amino)-2,7-naphthyridin-1(2H)-one] | > 5 µM | > 5 µM | > 5 µM |  |  |  |  |
| O=c1c2c(NCc3ccnc4ccccc34)nccc2ccn1-c1ccc(F)cc1 [Compound 9k, 2-(4-fluorophenyl)-8-((quinolin-4-ylmethyl)amino)-2,7-naphthyridin-1(2H)-one] | > 5 µM | 0.0085 µM | 0.238 µM |  | 38.8 fold |  |  |

More lines, main results first:

| IC50 (MET) | IC50 (c-Kit) | IC50 (VEGFR-2) | c-Kit potency, fold less potent than compound 3 (c-Kit; [1]) | c-Kit potency, fold more potent than compound 3 (c-Kit; [1]) | VEGFR-2 potency, fold more potent than compound 3 (VEGFR-2; [1]) | Structure (SMILES) | c-Kit inhibitory activity (in words) (c-Kit) |
| --- | --- | --- | --- | --- | --- | --- | --- |
| > 5 µM | > 5 µM | > 5 µM |  |  |  | Cc1cc2ccnc(Nc3cccnc3)c2c(=O)n1-c1ccc(F)cc1 [Compound 10a, 2-(4-fluorophenyl)-3-methyl-8-(pyridin-3-ylamino)-2,7-naphthyridin-1(2H)-one] |  |
| > 5 µM | > 5 µM | > 5 µM |  |  |  | Cc1cc2ccnc(NCc3cccnc3)c2c(=O)n1-c1ccc(F)cc1 [Compound 10b, 2-(4-fluorophenyl)-3-methyl-8-((pyridin-3-ylmethyl)amino)-2,7-naphthyridin-1(2H)-one] |  |
| > 5 µM | > 5 µM | > 5 µM |  |  |  | Cc1cc2ccnc(NCc3ccncc3)c2c(=O)n1-c1ccc(F)cc1 [Compound 10c, 2-(4-fluorophenyl)-3-methyl-8-((pyridin-4-ylmethyl)amino)-2,7-naphthyridin-1(2H)-one] |  |
| > 5 µM | 1.61 µM | 0.208 µM |  |  |  | Cc1cc2ccnc(NCc3ccnc4ccccc34)c2c(=O)n1-c1ccc(F)cc1 [Compound 10d, 2-(4-fluorophenyl)-3-methyl-8-((quinolin-4-ylmethyl)amino)-2,7-naphthyridin-1(2H)-one] | weak c-Kit inhibitory activity |
| > 5 µM | > 5 µM | > 5 µM |  |  |  | Cc1cc2ccnc(Nc3cccnc3)c2c(=O)n1-c1ccccc1 [Compound 10e, 3-methyl-2-phenyl-8-(pyridin-3-ylamino)-2,7-naphthyridin-1(2H)-one] |  |
| > 5 µM | > 5 µM | > 5 µM |  |  |  | Cc1cc2ccnc(NCc3cccnc3)c2c(=O)n1-c1ccccc1 [Compound 10f, 3-methyl-2-phenyl-8-((pyridin-3-ylmethyl)amino)-2,7-naphthyridin-1(2H)-one] |  |
| > 5 µM | > 5 µM | > 5 µM |  |  |  | Cc1cc2ccnc(NCc3ccncc3)c2c(=O)n1-c1ccccc1 [Compound 10g, 3-methyl-2-phenyl-8-((pyridin-4-ylmethyl)amino)-2,7-naphthyridin-1(2H)-one] |  |
| > 5 µM | > 5 µM | 1.03 µM |  |  |  | Cc1cc2ccnc(NCc3ccnc4ccccc34)c2c(=O)n1-c1ccccc1 [Compound 10h, 3-methyl-2-phenyl-8-((quinolin-4-ylmethyl)amino)-2,7-naphthyridin-1(2H)-one] |  |
| > 5 µM | > 5 µM | > 5 µM |  |  |  | Cc1cc2ccnc(Nc3cccnc3)c2c(=O)n1-c1ccc(Cl)cc1 [Compound 10i, 2-(4-chlorophenyl)-3-methyl-8-(pyridin-3-ylamino)-2,7-naphthyridin-1(2H)-one] |  |
| > 5 µM | > 5 µM | > 5 µM |  |  |  | Cc1cc2ccnc(NCc3cccnc3)c2c(=O)n1-c1ccc(Cl)cc1 [Compound 10j, 2-(4-chlorophenyl)-3-methyl-8-((pyridin-3-ylmethyl)amino)-2,7-naphthyridin-1(2H)-one] |  |
| > 5 µM | > 5 µM | 0.263 µM |  |  |  | Cc1cc2ccnc(NCc3ccncc3)c2c(=O)n1-c1ccc(Cl)cc1 [Compound 10k, 2-(4-chlorophenyl)-3-methyl-8-((pyridin-4-ylmethyl)amino)-2,7-naphthyridin-1(2H)-one] |  |
| > 5 µM | 0.107 µM | 0.0565 µM |  |  | 5.0–8.8 fold | Cc1cc2ccnc(NCc3ccnc4ccccc34)c2c(=O)n1-c1ccc(Cl)cc1 [Compound 10l, 2-(4-chlorophenyl)-3-methyl-8-((quinolin-4-ylmethyl)amino)-2,7-naphthyridin-1(2H)-one] | slightly stronger c-Kit inhibitory activity than compound 3 |
| > 5 µM | > 5 µM | > 5 µM |  |  |  | Cc1cc2ccnc(Nc3cccnc3)c2c(=O)n1-c1ccc(OC(F)(F)F)cc1 [Compound 10m, 3-methyl-8-(pyridin-3-ylamino)-2-(4-(trifluoromethoxy)phenyl)-2,7-naphthyridin-1(2H)-one] |  |
